{"source": "patent US11571443B2", "about": "“Phosphorylated tri-block copolymers with antimicrobial properties” (THE UNIVERSITY OF CHICAGO, priority 2016, dated 2023)", "key": {"P. aeruginosa [1]": {"tested_on": "P. aeruginosa", "details": "supplementation in the drinking water; cited from earlier work"}, "[2]": {"tested_on": "Enterococcus faecalis collagenolytic strains (E2 and E27)", "assay": "Collagenase production of collagenolytic Enterococcus faecalis, overnight incubation", "format": "cell-based", "details": "in vitro"}, "Enterococcus faecalis": {"tested_on": "Enterococcus faecalis", "assay": "Growth of Enterococcus faecalis", "format": "cell-based", "details": "in vitro", "method": "The inability of PPi-6 to suppress the collagenolytic activity of E. faecalis in vitro relates to its inability in vivo to improve anastomotic healing. […] The efficacy of this compound in vivo correlated to its ability to profoundly suppress collagenase activity in these strains […]. […] Actually, PPi-6 at concentrations of >2 mM even suppressed the E. faecalis growth."}, "S. marcescens [3]": {"tested_on": "S. marcescens", "details": "supplementation in the drinking water; cited from earlier work"}, "S. marcescens [4]": {"tested_on": "S. marcescens", "details": "cited from earlier work"}, "human pathogen community": {"tested_on": "human pathogen community", "assay": "Mice with 30% hepatectomy and intestinal infection with human pathogen community, polymers in drinking water", "format": "in vivo", "description": "(A) FIG. 10(A) provides data showing the extent of cell proliferation in cecal crypts of mice provided with drinking water lacking a phosphorylated PEG (PC 1-3, i.e., pathogen community, plates 1-3 wherein each plate contained 10 or 15 C. elegans worms exposed to pathogens), drinking water containing 3% PPi6 (hexametaphosphate) (PPi6 1-3 refers to plates 1-3 as described above, but exposed to pathogens from mice drinking 3% PPi6), or drinking water containing 1% ABA-PEG20k (ABA-PEG20k-P120 1-3, wherein 1-3 refers to plates 1-3 as described above exposed to pathogen from mice drinking 1% ABA-PEG20k). All groups are SAH+PC (starvation-positive, antibiotic-positive hepatectomy subjects exposed to the pathogen community), POD2 (data from post-operative day 2), and cell proliferation is measured by immunostaining for Ki67.\nAn experiment was conducted to assess the effects of phosphorylated polymers, i.e., PPi-6 and ABA-PEG20k-Pi20, delivered orally as drinking solutions to mice subjected to 30% hepatectomy and intestinal infection with the human pathogen community. More particularly, the mice were divided into the following groups. Group 1 contained starvation-positive, antibiotic-positive mice receiving no phosphorylated PEG but exposed to the pathogen community. Data from three groups of mice were analyzed. Absolute (FIG. 16A) and relative to crypt depth (FIG. 16B) Ki67 distributions were counted on 90 crypts cumulative of 3 mice in each group. Group 2 contained starvation-positive, antibiotic-positive mice receiving 3% PPi-6 and exposed to the pathogen community. Data from three mice were analyzed, totaling 109 crypts for Ki67 counts. Group 3 contained starvation-positive, antibiotic-positive mice receiving 1% ABA-PEG20k-Pi20 and exposed to the pathogen community. Data from three mice were analyzed, totaling 168 crypts for Ki67 counts.\nStem cell proliferation in cecal crypts, measured by immunostaining for the Ki67 marker, provides an accepted measure of crypt homeostasis."}, "P. aeruginosa [5]": {"tested_on": "P. aeruginosa", "details": "cited from earlier work"}, "E. faecalis E2": {"tested_on": "E. faecalis E2", "details": "oral administration", "protocol": "Next, the compound was tested in a mouse model of E. faecalis-mediated anastomotic leak by providing 1% ABA-PEG20k-Pi20 in drinking water. At post-operative day (POD) 7, anastomotic healing was assessed and the total amount of E. faecalis present at the anastomotic site and the percentage of E. faecalis expressing the collagenolytic phenotype were determined.\nTwo groups of mice were involved in this study. All mice were subjected to colon anastomosis followed by an enema of E. faecalis E2 at POD1. The first group received water, and the second group received 1% ABA-PEG20k-Pi20 dissolved in water. At the time of sacrifice at POD7, the tissues and luminal contents were collected at the site of anastomosis, homogenized, and used for culturing. Total Enterococcus colonization at the anastomosis site and luminal content were determined by culture analysis using Enterococcal selective plates (BD Difco) on which all Enterococcus species produced black-pigmented colonies. The CFU count was normalized to the sample weight. […] The collagenolytic population was evaluated on Enterococcal plates covered with skim milk on which collagenolytic species produced black colonies with a clearing halo surrounding the colony."}, "[6]": {"details": "3% PPi6 or 1% polymer in drinking water, POD2, SAH+PC mice"}}, "note": "Entries after “also recorded” stand apart in the source; their conditions may differ.", "data": [{"smiles": "O=P1([O-])OP(=O)([O-])OP(=O)([O-])OP(=O)([O-])OP(=O)([O-])OP(=O)([O-])O1.[Na+].[Na+].[Na+].[Na+].[Na+].[Na+]", "note": "[PPi-6, Sodium hexametaphosphate]", "values": [{"measurement": "protection from colonic anastomosis leakage", "setting": "P. aeruginosa [1]", "result": "protects mice from colonic anastomosis leakage"}, {"measurement": "collagenase production / collagenolytic activity of E. faecalis", "setting": "[2]", "result": "only slightly attenuated collagenase production; also recorded: does not affect the collagenolytic activity"}, {"measurement": "E. faecalis growth", "setting": "Enterococcus faecalis", "result": "does not promote a growth"}, {"measurement": "concentration that suppressed E. faecalis growth", "setting": "Enterococcus faecalis", "result": "> 2", "unit": "mM"}, {"measurement": "protection from colonic anastomosis leakage", "setting": "S. marcescens [3]", "result": "protects mice from colonic anastomosis leakage"}, {"measurement": "collagenase production", "setting": "S. marcescens [4]", "result": "profoundly suppresses the collagenase production"}, {"measurement": "abnormal stem cell proliferation in cecal crypts", "setting": "human pathogen community; 3% PPi6 or 1% ABA-PEG20k-Pi20 in drinking water", "result": "inhibit abnormal stem cell proliferation"}, {"measurement": "height of cell proliferation above cecal crypt base (Ki67)", "setting": "human pathogen community; [6]", "result": "31.04±1.288", "unit": "m"}, {"measurement": "height of proliferating cells relative to cecal crypt depth (Ki67)", "setting": "human pathogen community; [6]", "result": "35.12±1.332", "unit": "m"}, {"measurement": "mortality rate", "setting": "human pathogen community; post-operative day 2, 3% PPi6 or 1% ABA-PEG20k-Pi20 in drinking water", "result": 0, "unit": "%"}, {"measurement": "collagenase production", "setting": "P. aeruginosa [5]", "result": "profoundly suppresses the collagenase production"}, {"measurement": "anastomotic healing / protection in mouse model", "setting": "E. faecalis E2", "result": "did not improve the anastomotic healing complications"}]}]}
